Data: paper PMC5564600 (Oncotarget, 2017)

What was measured:
Assay in all cases: biochemical
Assay type in all cases: binding
panel of 442 kinases [1] = target: T1, panel of 442 kinases (Homo sapiens, UniProt Q7KZI7); details: kinase MARK2; for remaining activity at 1 µM: read-out: % of control at 1 µM
T1 construct: purchased Ambit Biosciences (scanMAXX KINOMEscan)

panel of 442 kinases [2] = target: T2, panel of 442 kinases (Homo sapiens, UniProt Q00532); details: CDKL1; for remaining activity at 1 µM: read-out: % of control at 1 µM
T2 construct: purchased Ambit Biosciences (scanMAXX KINOMEscan)

panel of 442 kinases [3] = target: T3, panel of 442 kinases (Homo sapiens, UniProt P08581, M1250T); details: kinase MET(M1250T); for remaining activity at 1 µM: read-out: % of control at 1 µM
T3 construct: purchased Ambit Biosciences (scanMAXX KINOMEscan)

panel of 442 kinases [4] = target: T4, panel of 442 kinases (Homo sapiens, UniProt Q9HC98); details: kinase NEK6; for remaining activity at 1 µM: read-out: % of control at 1 µM
T4 construct: purchased Ambit Biosciences (scanMAXX KINOMEscan)

panel of 442 kinases [5] = target: T5, panel of 442 kinases (Homo sapiens, UniProt P51617); details: kinase IRAK1; for remaining activity at 1 µM: read-out: % of control at 1 µM
T5 construct: purchased Ambit Biosciences (scanMAXX KINOMEscan)

panel of 442 kinases [6] = target: T6, panel of 442 kinases (Homo sapiens, UniProt P17612); details: kinase PKAC-alpha; for remaining activity at 1 µM: read-out: % of control at 1 µM
T6 construct: purchased Ambit Biosciences (scanMAXX KINOMEscan)

panel of 442 kinases [7] = target: T7, panel of 442 kinases (Homo sapiens, UniProt P49674); details: CSNK1E; for remaining activity at 1 µM: read-out: % of control at 1 µM
T7 construct: purchased Ambit Biosciences (scanMAXX KINOMEscan)

panel of 442 kinases [8] = target: T8, panel of 442 kinases (Homo sapiens, UniProt Q96PY6); details: kinase NEK1; for remaining activity at 1 µM: read-out: % of control at 1 µM
T8 construct: purchased Ambit Biosciences (scanMAXX KINOMEscan)
T8 sequence (Q96PY6 1-1258): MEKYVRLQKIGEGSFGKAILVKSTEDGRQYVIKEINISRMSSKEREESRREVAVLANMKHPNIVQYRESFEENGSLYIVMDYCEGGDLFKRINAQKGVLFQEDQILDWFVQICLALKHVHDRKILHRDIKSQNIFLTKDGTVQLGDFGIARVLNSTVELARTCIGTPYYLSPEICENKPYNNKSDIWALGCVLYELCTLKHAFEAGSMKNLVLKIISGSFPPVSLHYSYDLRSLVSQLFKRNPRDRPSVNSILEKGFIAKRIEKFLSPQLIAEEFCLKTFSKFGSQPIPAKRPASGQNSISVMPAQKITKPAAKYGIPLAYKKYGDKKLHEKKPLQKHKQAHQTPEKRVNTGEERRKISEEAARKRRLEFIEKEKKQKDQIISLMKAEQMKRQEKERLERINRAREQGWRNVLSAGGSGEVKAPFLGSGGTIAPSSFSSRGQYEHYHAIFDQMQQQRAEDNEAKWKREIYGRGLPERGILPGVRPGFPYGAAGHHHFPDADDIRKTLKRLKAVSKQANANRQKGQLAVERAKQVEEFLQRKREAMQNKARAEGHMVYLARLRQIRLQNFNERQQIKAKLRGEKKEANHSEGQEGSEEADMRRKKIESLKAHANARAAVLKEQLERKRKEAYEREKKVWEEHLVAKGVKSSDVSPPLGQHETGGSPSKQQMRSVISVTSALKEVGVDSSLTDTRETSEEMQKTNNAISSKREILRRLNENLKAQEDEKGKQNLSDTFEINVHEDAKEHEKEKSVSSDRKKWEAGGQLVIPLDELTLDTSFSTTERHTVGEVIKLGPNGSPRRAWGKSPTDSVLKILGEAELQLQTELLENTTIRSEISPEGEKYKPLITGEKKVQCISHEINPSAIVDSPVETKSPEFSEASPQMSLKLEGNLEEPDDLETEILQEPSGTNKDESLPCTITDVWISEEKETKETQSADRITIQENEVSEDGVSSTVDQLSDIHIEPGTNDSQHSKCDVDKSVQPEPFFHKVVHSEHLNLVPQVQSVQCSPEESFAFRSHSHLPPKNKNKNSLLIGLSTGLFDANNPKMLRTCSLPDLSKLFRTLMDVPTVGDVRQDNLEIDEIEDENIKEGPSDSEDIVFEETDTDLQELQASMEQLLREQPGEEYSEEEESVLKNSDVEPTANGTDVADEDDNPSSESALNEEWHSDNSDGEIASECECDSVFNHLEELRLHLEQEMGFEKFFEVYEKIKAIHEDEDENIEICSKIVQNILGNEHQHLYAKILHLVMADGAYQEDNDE

panel of 442 kinases [9] = target: T9, panel of 442 kinases (Homo sapiens, UniProt P52564); details: kinase MEK6; for remaining activity at 1 µM: read-out: % of control at 1 µM
T9 construct: purchased Ambit Biosciences (scanMAXX KINOMEscan)
T9 sequence (P52564 1-334): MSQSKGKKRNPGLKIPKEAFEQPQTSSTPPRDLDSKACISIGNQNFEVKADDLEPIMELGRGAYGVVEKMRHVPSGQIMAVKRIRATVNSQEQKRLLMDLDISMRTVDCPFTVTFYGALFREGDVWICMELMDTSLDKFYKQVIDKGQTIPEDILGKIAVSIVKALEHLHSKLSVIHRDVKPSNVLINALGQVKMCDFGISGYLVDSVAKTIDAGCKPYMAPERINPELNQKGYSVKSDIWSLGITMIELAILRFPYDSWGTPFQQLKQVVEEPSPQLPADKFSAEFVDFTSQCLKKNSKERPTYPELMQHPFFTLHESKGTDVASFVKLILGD

panel of 442 kinases [10] = target: T10, panel of 442 kinases (Homo sapiens, UniProt Q8NE63); details: kinase HIPK4; for remaining activity at 1 µM: read-out: % of control at 1 µM
T10 construct: purchased Ambit Biosciences (scanMAXX KINOMEscan)
T10 sequence (Q8NE63 1-616): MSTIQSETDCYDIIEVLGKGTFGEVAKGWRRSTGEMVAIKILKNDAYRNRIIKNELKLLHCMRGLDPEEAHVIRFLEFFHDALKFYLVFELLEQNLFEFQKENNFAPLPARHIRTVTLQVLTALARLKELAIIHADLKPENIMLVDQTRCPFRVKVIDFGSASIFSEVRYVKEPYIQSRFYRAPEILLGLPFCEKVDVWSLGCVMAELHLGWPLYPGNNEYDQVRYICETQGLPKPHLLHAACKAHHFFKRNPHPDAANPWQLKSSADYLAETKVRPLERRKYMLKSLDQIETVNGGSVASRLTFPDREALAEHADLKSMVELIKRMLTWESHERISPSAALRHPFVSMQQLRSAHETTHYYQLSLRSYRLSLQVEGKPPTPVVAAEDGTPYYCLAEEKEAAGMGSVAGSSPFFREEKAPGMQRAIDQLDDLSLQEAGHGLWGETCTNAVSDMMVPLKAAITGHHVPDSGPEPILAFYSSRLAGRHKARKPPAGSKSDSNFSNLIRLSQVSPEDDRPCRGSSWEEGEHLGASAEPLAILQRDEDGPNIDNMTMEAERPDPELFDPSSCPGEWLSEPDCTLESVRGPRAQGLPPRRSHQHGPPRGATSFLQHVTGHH

[11] = 10 µM, read-out: % of control at 10 µM

T2 sequence (Q00532 whole entry): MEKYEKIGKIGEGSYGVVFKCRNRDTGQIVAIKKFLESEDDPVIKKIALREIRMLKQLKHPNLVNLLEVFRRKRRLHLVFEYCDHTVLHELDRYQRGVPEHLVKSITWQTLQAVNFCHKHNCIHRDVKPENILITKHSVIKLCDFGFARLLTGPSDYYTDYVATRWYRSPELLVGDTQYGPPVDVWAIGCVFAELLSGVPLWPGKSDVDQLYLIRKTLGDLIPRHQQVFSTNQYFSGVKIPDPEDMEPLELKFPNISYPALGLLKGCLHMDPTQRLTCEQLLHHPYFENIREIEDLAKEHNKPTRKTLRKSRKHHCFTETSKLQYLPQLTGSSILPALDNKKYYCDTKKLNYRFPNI
T1 sequence (Q7KZI7 whole entry): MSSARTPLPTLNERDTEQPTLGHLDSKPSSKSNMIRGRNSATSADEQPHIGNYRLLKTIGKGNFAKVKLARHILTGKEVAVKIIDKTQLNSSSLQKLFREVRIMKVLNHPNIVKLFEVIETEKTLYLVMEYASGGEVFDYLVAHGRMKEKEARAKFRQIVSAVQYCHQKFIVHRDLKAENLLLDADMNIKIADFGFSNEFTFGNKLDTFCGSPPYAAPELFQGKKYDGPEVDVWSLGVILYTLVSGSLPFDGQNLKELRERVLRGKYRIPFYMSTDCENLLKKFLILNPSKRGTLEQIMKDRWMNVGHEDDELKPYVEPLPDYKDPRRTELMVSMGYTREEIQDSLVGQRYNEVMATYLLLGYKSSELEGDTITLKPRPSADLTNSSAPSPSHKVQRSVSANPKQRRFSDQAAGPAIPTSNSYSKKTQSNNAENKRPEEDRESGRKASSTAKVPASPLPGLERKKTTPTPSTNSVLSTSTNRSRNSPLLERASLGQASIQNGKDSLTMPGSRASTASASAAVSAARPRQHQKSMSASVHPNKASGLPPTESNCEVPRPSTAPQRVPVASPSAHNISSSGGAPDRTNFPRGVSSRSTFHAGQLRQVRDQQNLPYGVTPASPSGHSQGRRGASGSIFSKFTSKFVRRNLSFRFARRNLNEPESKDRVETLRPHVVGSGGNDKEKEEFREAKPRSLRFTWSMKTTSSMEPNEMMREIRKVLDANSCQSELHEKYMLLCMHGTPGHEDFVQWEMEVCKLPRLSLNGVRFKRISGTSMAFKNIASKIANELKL
T3 sequence (P08581 25-1390 M1250T): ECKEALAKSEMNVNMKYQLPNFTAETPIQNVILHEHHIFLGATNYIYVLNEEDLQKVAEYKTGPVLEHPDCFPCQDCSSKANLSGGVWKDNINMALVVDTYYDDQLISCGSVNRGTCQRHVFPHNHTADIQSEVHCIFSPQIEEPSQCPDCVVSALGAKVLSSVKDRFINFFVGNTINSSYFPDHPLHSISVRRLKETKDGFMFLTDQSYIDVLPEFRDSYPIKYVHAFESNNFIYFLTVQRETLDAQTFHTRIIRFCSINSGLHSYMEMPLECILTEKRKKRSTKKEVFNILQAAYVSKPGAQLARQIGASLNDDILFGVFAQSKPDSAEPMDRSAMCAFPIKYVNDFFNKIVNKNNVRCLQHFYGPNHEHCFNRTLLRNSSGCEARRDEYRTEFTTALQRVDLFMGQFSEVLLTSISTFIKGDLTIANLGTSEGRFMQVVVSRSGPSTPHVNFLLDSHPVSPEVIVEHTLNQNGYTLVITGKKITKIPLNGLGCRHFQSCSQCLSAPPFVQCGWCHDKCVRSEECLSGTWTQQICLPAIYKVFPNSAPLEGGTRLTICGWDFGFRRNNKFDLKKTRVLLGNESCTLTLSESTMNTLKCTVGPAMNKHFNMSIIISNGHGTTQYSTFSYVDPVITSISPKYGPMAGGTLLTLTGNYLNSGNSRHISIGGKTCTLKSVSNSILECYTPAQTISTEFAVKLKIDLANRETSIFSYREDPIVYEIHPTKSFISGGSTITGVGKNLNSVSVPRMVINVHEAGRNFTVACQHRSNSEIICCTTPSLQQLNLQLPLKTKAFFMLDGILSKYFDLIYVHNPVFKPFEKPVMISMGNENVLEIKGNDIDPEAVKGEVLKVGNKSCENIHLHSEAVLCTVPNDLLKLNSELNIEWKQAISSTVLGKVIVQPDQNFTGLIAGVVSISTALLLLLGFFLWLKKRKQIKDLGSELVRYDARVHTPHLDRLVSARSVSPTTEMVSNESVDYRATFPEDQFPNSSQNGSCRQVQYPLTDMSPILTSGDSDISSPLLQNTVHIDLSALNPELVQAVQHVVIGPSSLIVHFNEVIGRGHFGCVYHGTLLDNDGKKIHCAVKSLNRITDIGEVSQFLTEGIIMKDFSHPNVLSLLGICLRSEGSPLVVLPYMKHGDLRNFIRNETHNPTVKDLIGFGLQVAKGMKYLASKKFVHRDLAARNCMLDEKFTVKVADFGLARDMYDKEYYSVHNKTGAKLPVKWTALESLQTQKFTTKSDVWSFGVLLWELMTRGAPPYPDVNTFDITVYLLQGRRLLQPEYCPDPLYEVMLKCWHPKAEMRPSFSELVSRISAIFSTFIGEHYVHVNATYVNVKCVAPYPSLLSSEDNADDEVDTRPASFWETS
T4 sequence (Q9HC98 whole entry): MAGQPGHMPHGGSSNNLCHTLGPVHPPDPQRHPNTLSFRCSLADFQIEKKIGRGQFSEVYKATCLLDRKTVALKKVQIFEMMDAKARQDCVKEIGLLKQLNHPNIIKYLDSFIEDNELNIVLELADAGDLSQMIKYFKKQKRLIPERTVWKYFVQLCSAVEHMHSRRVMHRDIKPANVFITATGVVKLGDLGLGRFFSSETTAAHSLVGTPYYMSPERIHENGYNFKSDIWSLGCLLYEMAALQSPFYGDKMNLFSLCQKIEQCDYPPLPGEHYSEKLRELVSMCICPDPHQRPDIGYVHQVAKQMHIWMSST
T5 sequence (P51617 whole entry): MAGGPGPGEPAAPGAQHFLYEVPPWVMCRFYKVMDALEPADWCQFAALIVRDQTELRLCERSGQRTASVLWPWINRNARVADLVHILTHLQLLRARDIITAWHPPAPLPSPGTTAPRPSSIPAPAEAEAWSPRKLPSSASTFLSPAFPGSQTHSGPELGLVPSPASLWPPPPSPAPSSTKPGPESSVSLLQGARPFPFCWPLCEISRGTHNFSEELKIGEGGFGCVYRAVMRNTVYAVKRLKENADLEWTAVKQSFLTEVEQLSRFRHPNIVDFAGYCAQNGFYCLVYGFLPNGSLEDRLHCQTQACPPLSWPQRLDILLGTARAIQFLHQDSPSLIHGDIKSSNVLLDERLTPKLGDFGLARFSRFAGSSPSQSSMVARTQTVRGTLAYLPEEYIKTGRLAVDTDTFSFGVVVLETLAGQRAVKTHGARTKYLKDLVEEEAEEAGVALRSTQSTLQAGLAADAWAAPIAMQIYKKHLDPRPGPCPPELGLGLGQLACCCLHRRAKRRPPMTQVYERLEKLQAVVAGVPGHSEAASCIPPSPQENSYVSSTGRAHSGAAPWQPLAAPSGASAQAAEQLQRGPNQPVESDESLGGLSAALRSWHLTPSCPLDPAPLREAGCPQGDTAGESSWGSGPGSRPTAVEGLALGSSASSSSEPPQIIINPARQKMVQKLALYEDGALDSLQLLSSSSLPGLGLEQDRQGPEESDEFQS
T7 sequence (P49674 whole entry): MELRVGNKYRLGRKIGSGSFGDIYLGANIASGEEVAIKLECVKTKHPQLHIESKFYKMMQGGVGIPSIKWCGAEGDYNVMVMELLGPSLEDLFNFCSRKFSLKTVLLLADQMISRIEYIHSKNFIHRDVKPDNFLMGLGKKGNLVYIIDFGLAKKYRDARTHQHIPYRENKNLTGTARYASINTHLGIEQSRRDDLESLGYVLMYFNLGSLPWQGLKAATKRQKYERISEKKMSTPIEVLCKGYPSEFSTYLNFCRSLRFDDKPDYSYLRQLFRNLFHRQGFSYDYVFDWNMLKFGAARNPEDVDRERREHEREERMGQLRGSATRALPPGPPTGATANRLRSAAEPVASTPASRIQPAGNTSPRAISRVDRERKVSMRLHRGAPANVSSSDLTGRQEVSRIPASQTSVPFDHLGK

Row | SMILES | remaining activity at 1 µM (panel of 442 kinases [1]) [%] | remaining activity at 10 µM (panel of 442 kinases [1]; [11]) [%] | remaining activity at 1 µM (panel of 442 kinases [2]) [%] | remaining activity at 10 µM (panel of 442 kinases [2]; [11]) [%] | remaining activity at 1 µM (panel of 442 kinases [3]) [%] | remaining activity at 10 µM (panel of 442 kinases [3]; [11]) [%] | remaining activity at 1 µM (panel of 442 kinases [4]) [%] | remaining activity at 10 µM (panel of 442 kinases [4]; [11]) [%] | remaining activity at 1 µM (panel of 442 kinases [5]) [%] | remaining activity at 10 µM (panel of 442 kinases [5]; [11]) [%] | remaining activity at 1 µM (panel of 442 kinases [6]) [%] | remaining activity at 10 µM (panel of 442 kinases [6]; [11]) [%] | remaining activity at 1 µM (panel of 442 kinases [7]) [%] | remaining activity at 10 µM (panel of 442 kinases [7]; [11]) [%] | remaining activity at 1 µM (panel of 442 kinases [8]) [%] | remaining activity at 10 µM (panel of 442 kinases [8]; [11]) [%] | remaining activity at 1 µM (panel of 442 kinases [9]) [%] | remaining activity at 10 µM (panel of 442 kinases [9]; [11]) [%] | remaining activity at 1 µM (panel of 442 kinases [10]) [%] | remaining activity at 10 µM (panel of 442 kinases [10]; [11]) [%]
1 | Nc1cc(C(F)(F)F)c(-c2cc(N3CCOCC3)nc(N3CCOCC3)n2)cn1 [Buparlisib] | 100 | 71 | 100 | 100 | 92 | 100 | 84 | 100 | 82 | 71 | 86 | 100 | 100 | 72 | 100 | 100 | 90 | 85 | 97 | 100
2 | COc1ncc(-c2ccc3nccc(-c4ccnnc4)c3c2)cc1NS(=O)(=O)c1ccc(F)cc1F [Omipalisib] | 100 | – | 100 | – | 80 | – | 100 | – | 100 | – | 84 | – | 100 | – | 87 | – | 51 | – | 98 | –
3 | FC(F)c1nc2ccccc2n1-c1nc(N2CCOCC2)nc(N2CCOCC2)n1 [ZSTK474, 2-(difluoromethyl)-1-[4,6-di(4-morpholinyl)-1,3,5-triazin-2-yl]-1H-benzimidazole] | 57 | – | 100 | – | 99 | – | 100 | – | 92 | – | 100 | – | 100 | – | 100 | – | 97 | – | 77 | –
4 | Cn1c(=O)n(-c2ccc(C(C)(C)C#N)cc2)c2c3cc(-c4cnc5ccccc5c4)ccc3ncc21 [Dactolisib, 2-methyl-2-[4-(3-methyl-2-oxo-8-quinolin-3-yl-2,3-dihydroimidazo[4,5-c]quinolin-1-yl)-phenyl] propionitrile] | 65 | – | 100 | – | – | – | 100 | – | 54 | – | 100 | – | 54 | – | 98 | – | 96 | – | 87 | –
